Data from ChEMBL document CHEMBL4339189, “Dissymmetric pyridyl-substituted 3,5-bis(arylidene)-4-piperidones as anti-hepatoma agents by inhibiting NF-κB pathway activation” (Eur J Med Chem, 2019).
Activity calls are given as the source filed them. The rule behind the calls is not given here.

How the values were obtained:
[1] = Cytotoxicity against human HHL5 cells assessed as reduction in cell viability incubated for 24 hrs by MTT assay; type: cell-based; details: HHL-5, 24 h
[2] = tested on: L02; assay: Cytotoxicity against human LO2 cells assessed as reduction in cell viability incubated for 24 hrs by MTT assay; type: cell-based; details: L02, 24 h
[3] = tested on: HepG2; assay: Cytotoxicity against human HepG2 cells assessed as reduction in cell viability incubated for 24 hrs by MTT assay; type: functional, cell-based; details: HepG2, 24 h
[4] = tested on: RAW264.7; assay: Antiinflammatory activity in mouse RAW264.7 cells assessed as inhibition of LPS-stimulated TNF-alpha production at 6.0 uM preincubated for 2 hrs followed by LPS stimulaton measured after 22 hrs by ELISA relative to control; type: functional
[5] = tested on: RAW264.7; assay: Cytotoxicity against mouse RAW264.7 cells assessed as reduction in cell viability at 6.0 uM incubated for 24 hrs by MTT assay; type: cell-based; details: raw264.7, 24 h
[6] = tested on: RAW264.7; assay: Antiinflammatory activity in mouse RAW264.7 cells assessed as inhibition of LPS-stimulated IL-6 production 6.0 uM preincubated for 2 hrs followed by LPS stimulaton measured after 22 hrs by ELISA relative to control; type: functional
[7] = tested on: QGY-7703; assay: Cytotoxicity against human QGY7703 cells assessed as reduction in cell viability incubated for 24 hrs by MTT assay; type: functional, cell-based; details: QGY-7703, 24 h
[8] = tested on: SMMC-7721; assay: Cytotoxicity against human SMMC7721 cells assessed as reduction in cell viability incubated for 24 hrs by MTT assay; type: functional, cell-based; details: SMMC-7721, 24 h

SMILES | IC50 [1] [µM] | IC50 [2] [µM] | IC50 [3] [µM] | inhibition at 6 µM [4] [%] | Activity [5] | inhibition (INH) [6] [%] | IC50 [7] [µM] | IC50 [8] [µM] | inhibition [4] | inhibition [6]
CN1C/C(=C\c2ccncc2)C(=O)/C(=C/c2ccccc2C(F)(F)F)C1 | 10.4 | 15.8 | 3.3 | < 30 | Non-Toxic | <30 | 4.5 | 4.1 |  | 
CC(=O)Nc1ccc(S(=O)(=O)N2C/C(=C\c3ccncc3)C(=O)/C(=C/c3ccccc3C(F)(F)F)C2)cc1 | 8.87 | 10.1 | 4.84 |  | Non-Toxic |  | 5.56 | 5.76 |  | 
N#Cc1ccc(S(=O)(=O)N2C/C(=C\c3ccncc3)C(=O)/C(=C/c3ccccc3C(F)(F)F)C2)cc1 | 19.7 | 17.6 | 5.92 |  | Non-Toxic |  | 6.29 | 9.61 |  | 
O=C1/C(=C/c2ccncc2)CN(S(=O)(=O)c2ccc(F)cc2)C/C1=C\c1ccccc1F | 15.4 | 15.6 | 20.3 |  | Non-Toxic |  | 9.1 | > 20 | inactive | inactive
O=C1/C(=C/c2ccncc2)CN(S(=O)(=O)c2ccccc2)C/C1=C\c1ccccc1F | > 20 | 15.9 | 5.8 |  | Non-Toxic |  | 8.4 | 17.5 | inactive | inactive
O=C1/C(=C/c2cccnc2)CN(S(=O)(=O)c2ccc(Br)cc2)C/C1=C\c1ccccc1F | 14.2 | 14.6 | 8.7 |  | Non-Toxic |  | 12.8 | 9.1 | inactive | inactive
CN1C/C(=C\c2ccncc2)C(=O)/C(=C/c2ccc(C(F)(F)F)cc2)C1 | 12.2 | 17.4 | 8.2 |  | Non-Toxic |  | 10.4 | 17.7 | Active | Active
CC(=O)Nc1ccc(S(=O)(=O)N2C/C(=C\c3ccncc3)C(=O)/C(=C/c3ccccc3F)C2)cc1 | 14.2 | 12.3 | 11.7 |  | Non-Toxic |  | 13.7 | 13.4 | inactive | inactive
O=C1/C(=C/c2ccncc2)CN(S(=O)(=O)c2ccc(Br)cc2)C/C1=C\c1ccccc1F | > 20 | 19.4 | 9.3 |  | Non-Toxic |  | 11.5 | 12.6 | inactive | inactive
CN1C/C(=C\c2ccncc2)C(=O)/C(=C/c2ccc(C#N)cc2)C1 | 11.5 | 14 | 13.9 |  | Non-Toxic |  | 7.4 | 18.5 | Active | Active
N#Cc1ccc(S(=O)(=O)N2C/C(=C\c3ccncc3)C(=O)/C(=C/c3ccccc3F)C2)cc1 | 15.7 | > 20 | 4.5 |  | Non-Toxic |  | 8.5 | 16.2 | Active | Active
CN1C/C(=C\c2cccnc2)C(=O)/C(=C/c2ccc(F)cc2Br)C1 | 11.3 | 14.4 | 13 |  | Non-Toxic |  | 2.61 | 20.8 | Active | Active
CN1C/C(=C\c2ccc(C(F)(F)F)cc2)C(=O)/C(=C/c2cccnc2)C1 | 14.2 | 15.6 | 4.79 | < 30 | Non-Toxic | <30 | 1.66 | 4.83 |  | 
N#Cc1ccc(S(=O)(=O)N2C/C(=C\c3cccnc3)C(=O)/C(=C/c3ccccc3F)C2)cc1 | 15.5 | > 20 | 6.6 |  | Non-Toxic |  | 15.8 | 15.4 | inactive | inactive
O=C1/C(=C/c2cccnc2)CN(S(=O)(=O)c2ccccc2)C/C1=C\c1ccccc1C(F)(F)F | 14.3 | 12.5 | 5.37 |  | Non-Toxic |  | 6.24 | 10.9 | Active | Active
COc1cc(/C=C2\CN(C)C/C(=C\c3cccnc3)C2=O)cc(OC)c1 | > 20 | 18.4 | 6.91 |  | Non-Toxic |  | 7.9 | 17.9 | Active | Active
Cc1ccc(S(=O)(=O)N2C/C(=C\c3ccncc3)C(=O)/C(=C/c3ccccc3F)C2)cc1 | 13.3 | > 20 | 9.7 |  | Non-Toxic |  | > 20 | 13.2 | inactive | inactive

SMILES | IC50 [1] [µM] | IC50 [2] [µM] | IC50 [3] [µM] | inhibition at 6 µM [4] [%] | Activity [5] | inhibition (INH) [6] [%] | IC50 [7] [µM] | IC50 [8] [µM] | inhibition [4] | inhibition [6]
O=C1/C(=C/c2cccnc2)CNC/C1=C\c1ccccc1C(F)(F)F | 10.4 | 11.3 | 5.02 |  | Non-Toxic |  | 3.8 | 5.1 | Active | Active
O=C1/C(=C/c2ccncc2)CN(S(=O)(=O)c2ccc(F)cc2)C/C1=C\c1ccccc1C(F)(F)F | 12 | 12.9 | 4.01 |  | Non-Toxic |  | 7.7 | 9.27 |  | 
O=C1/C(=C/c2ccncc2)CNC/C1=C\c1ccccc1F | 13.9 | 14.7 | 8.2 |  | Non-Toxic |  | 14.2 | 18.4 | inactive | inactive
CN1C/C(=C\c2ccncc2)C(=O)/C(=C/c2ccc(F)cc2Br)C1 | 11.6 | 12.4 | 9.2 |  | Non-Toxic |  | 6.9 | 23.8 | Active | Active
O=C1/C(=C/c2cccnc2)CN(S(=O)(=O)c2ccc(Cl)cc2)C/C1=C\c1ccccc1F | > 20 | > 20 | 12.4 |  | Non-Toxic |  | 12.1 | 16.1 | inactive | inactive
CN1C/C(=C\c2ccncc2)C(=O)/C(=C/c2cc([N+](=O)[O-])ccc2F)C1 | 15.2 | 17.6 | 5.2 | < 30 | Non-Toxic | <30 | 5.7 | 14.7 |  | 
O=C1/C(=C/c2ccncc2)CN(S(=O)(=O)c2ccc(C(F)(F)F)cc2)C/C1=C\c1ccccc1C(F)(F)F | 11.7 | 13.8 | 3.24 |  | Non-Toxic |  | 4.68 | 3.84 |  | 
COc1cc(/C=C/C(=O)CC(=O)/C=C/c2ccc(O)c(OC)c2)ccc1O [CURCUMIN] | 24.2 | 22.7 | 17.4 |  |  |  | 23.9 | 16.7 |  | 
O=C1/C(=C/c2ccncc2)CN(S(=O)(=O)c2ccc(Cl)cc2)C/C1=C\c1ccccc1F | 11.5 | 15 | 5.3 |  | Non-Toxic |  | 12.5 | 9.6 | Active | Active
O=C1/C(=C/c2ccncc2)CN(S(=O)(=O)c2ccc(Br)cc2)C/C1=C\c1ccccc1C(F)(F)F | 9.32 | 12.6 | 14.5 |  | Non-Toxic |  | 7.06 | 10.5 |  | 
O=C1/C(=C/c2ccncc2)CN(S(=O)(=O)c2ccccc2)C/C1=C\c1ccccc1C(F)(F)F | 12.1 | 12.3 | 7.02 |  | Non-Toxic |  | 6.21 | 6.54 |  | 
O=C1/C(=C/c2ccncc2)CN(S(=O)(=O)c2ccc([N+](=O)[O-])cc2)C/C1=C\c1ccccc1C(F)(F)F | > 20 | 18.6 | 13.4 |  | Non-Toxic |  | 9.73 | > 20 |  | 
O=C1/C(=C/c2ccccc2F)CNC/C1=C\c1ccccc1F | 14.5 | 10.2 | 3.33 |  |  |  | 4.97 | 8.8 |  | 
Cc1ccc(S(=O)(=O)N2C/C(=C\c3ccncc3)C(=O)/C(=C/c3ccccc3C(F)(F)F)C2)cc1 | 15.9 | 12.8 | 4.64 |  | Non-Toxic |  | 5.09 | 5.59 |  | 
O=C1/C(=C/c2ccncc2)CN(S(=O)(=O)c2ccc(Cl)cc2)C/C1=C\c1ccccc1C(F)(F)F | 11 | 14.9 | 7.19 |  | Non-Toxic |  | 12.7 | 5.51 |  | 
S=C(S)N1CCCC1 |  |  |  |  |  |  |  |  | Active | Active
